# Measured values taken from patent US9149536B2, “Conjugated antimicrobial agents” (priority 2009, dated 2015).
# How the values were obtained:
# [1] = tested on: E. coli AG100A; assay: MIC, double-microdilution, E. coli AG100A; format: cell-based, Escherichia coli; conditions: for MIC E. coli AG100A: Table 4, kanamycin resistant, APH(3′)-I
# [2] = tested on: E. coli R477-100; assay: MIC, double-microdilution, E. coli R477-100; format: cell-based, Escherichia coli; conditions: Table 4
# [3] = tested on: E. coli XL1 blue/pSF815; assay: microbe, parasite or virus in culture; format: cell-based; conditions: for MIC ratio XL1 blue/pSF815 to XL1 blue: MIC resistant strain divided by MIC background strain; for MIC XL1 blue/pSF815: expressed enzyme AAC(6′)-APH(2″)
# Procedure: (§1) For this purpose, exemplary conjugates, according to some embodiments of the present invention, were tested against five isogenic E. coli strains. E. coli (pSF815) and E. coli (pET9d) are laboratory resistant strains derived by transformation of E. coli XL1 blue (background strain) with the pSF815 and pET9d plasmids, respectively. […] The last two isogenic strains used were E. coli BL21 (background strain) and E. coli (pETSACG1). […] These three enzymes are among the most prevalent modes of resistance found in aminoglycosides resistance strains.
# (§2) The MIC ratios were calculated by dividing the MIC value against resistant strain to that against the respective background strain.
# [4] = tested on: E. coli BL21; assay: microbe, parasite or virus in culture; format: cell-based; conditions: background strain
# Procedure: as §1, §2
# [5] = tested on: E. coli XL1 blue; assay: microbe, parasite or virus in culture; format: cell-based; conditions: background strain
# Procedure: as §1, §2
# [6] = tested on: E. coli BL21/pETSACG1; assay: microbe, parasite or virus in culture; format: cell-based; conditions: for MIC ratio BL21/pETSACG1 to BL21: MIC resistant strain divided by MIC background strain; for MIC BL21/pETSACG1: expressed enzyme APH(3′)-IIIa
# Procedure: as §1, §2
# [7] = tested on: E. coli XL1 blue/pET9d; assay: microbe, parasite or virus in culture; format: cell-based; conditions: for MIC ratio XL1 blue/pET9d to XL1 blue: MIC resistant strain divided by MIC background strain; for MIC XL1 blue/pET9d: expressed enzyme APH(3′)-Ia
# Procedure: as §1, §2
# [8] = tested on: B. subtilis ATCC 6633; assay: MIC, double-microdilution, B. subtilis ATCC 6633; format: cell-based; conditions: Table 4
# [9] = tested on: E. coli ATCC 25922; assay: MIC, double-microdilution, E. coli ATCC 25922; format: cell-based, Escherichia coli; conditions: Table 4
# [10] = tested on: E. coli AG100B; assay: MIC, double-microdilution, E. coli AG100B; format: cell-based, Escherichia coli; conditions: for MIC E. coli AG100B: Table 4, kanamycin resistant, APH(3′)-I
# From the text: AG100B and AG100A are two kanamycin resistant Escherichia coli strains expressing APH(3′)-I aminoglycoside resistance enzyme.
# [11] = tested on: MRSA ATCC 43300; assay: microbe, parasite or virus in culture; format: cell-based, S. aureus; conditions: Table 4
# [12] = target: T1, E. coli TopoIV (Escherichia coli, UniProt P0AFI2+P20083); assay: TopoIV relaxation assay; format: biochemical; conditions: for IC50: relaxation assay, supercoiled pBR322
# T1 construct: purchased Inspiralis Ltd
# Procedure: DNA relaxation activity was assayed with supercoiled pBR322 DNA as a substrate (Inspiralis Ltd) according to the manufacturer's protocol. The standard reaction mixture (20 μl) contained 40 mM HEPES-KOH pH 7.6, 100 mM potassium glutamate, 10 mM Mg(OAc)2, 10 mM dithiothreitol, 1 mM ATP, 50 μg/ml albumin, 5 ng/μl […] pBR322, and TopoIV protein. The reaction mixture was incubated at 37° C. for 30 minutes, and then was terminated by addition of 2 μl 0.5 M EDTA, 3.5 μl loading dye and 20 μl chloroform/isoamyl alcohol (24:1) mixture. […] One unit of relaxation activity was defined as the amount of TopoIV required to relax 0.1 μg of plasmid in 30 minutes.
# (§3) Relaxation assays were conducted with E. coli TopoIV.
# [13] = tested on: bacterial protein synthesis; assay: In vitro coupled transcription/translation assay, E. coli S30 extract; format: biochemical; conditions: luciferase readout
# Procedure: Protein translation inhibition by the different compounds was quantified in a coupled transcription/translation assay by using E. coli S30 extracts for circular DNA with the pBEST/uc plasmid (Promega), according to the manufacturer's protocol.
# Translation reactions (25 μl) that contained variable concentrations of the tested compound were incubated at 37° C. for 60 minutes, cooled on ice for 5 minutes, and diluted with a dilution reagent (tris-phosphate buffer (25 mM, pH 7.8), DTT (2 mM), 1,2-diaminocyclohexanetetraacetate (2 mM), glycerol (10%), Triton X-100 (1%) and BSA (1 mg/ml)) into 96-well plates. The luminescence was measured immediately after the addition of the Luciferase Assay Reagent (50 μl; Promega), and the light emission was recorded with a Victor3™ Plate Reader (Perkin-Elmer). The concentration of half-maximal inhibition (IC50) was obtained from fitting concentration-response curves to the data of at least two independent experiments by using Grafit 5 software (Leatherbarrow, R. J. Erithacus Software Ltd: Horley, U.K., 2001).
# as §3
# [14] = target: E. coli DNA gyrase (Escherichia coli, UniProt P0AES4+P0AES6); conditions: for IC50 fold superior than that of Cipro in DNA gyrase assay: general statements name DNA gyrase and TopoIV together; for IC50: read-out: DNA gyrase IC50, supercoiling assay, relaxed pBR322
# Chain of E. coli DNA gyrase (P0AES4 whole entry, one chain of several): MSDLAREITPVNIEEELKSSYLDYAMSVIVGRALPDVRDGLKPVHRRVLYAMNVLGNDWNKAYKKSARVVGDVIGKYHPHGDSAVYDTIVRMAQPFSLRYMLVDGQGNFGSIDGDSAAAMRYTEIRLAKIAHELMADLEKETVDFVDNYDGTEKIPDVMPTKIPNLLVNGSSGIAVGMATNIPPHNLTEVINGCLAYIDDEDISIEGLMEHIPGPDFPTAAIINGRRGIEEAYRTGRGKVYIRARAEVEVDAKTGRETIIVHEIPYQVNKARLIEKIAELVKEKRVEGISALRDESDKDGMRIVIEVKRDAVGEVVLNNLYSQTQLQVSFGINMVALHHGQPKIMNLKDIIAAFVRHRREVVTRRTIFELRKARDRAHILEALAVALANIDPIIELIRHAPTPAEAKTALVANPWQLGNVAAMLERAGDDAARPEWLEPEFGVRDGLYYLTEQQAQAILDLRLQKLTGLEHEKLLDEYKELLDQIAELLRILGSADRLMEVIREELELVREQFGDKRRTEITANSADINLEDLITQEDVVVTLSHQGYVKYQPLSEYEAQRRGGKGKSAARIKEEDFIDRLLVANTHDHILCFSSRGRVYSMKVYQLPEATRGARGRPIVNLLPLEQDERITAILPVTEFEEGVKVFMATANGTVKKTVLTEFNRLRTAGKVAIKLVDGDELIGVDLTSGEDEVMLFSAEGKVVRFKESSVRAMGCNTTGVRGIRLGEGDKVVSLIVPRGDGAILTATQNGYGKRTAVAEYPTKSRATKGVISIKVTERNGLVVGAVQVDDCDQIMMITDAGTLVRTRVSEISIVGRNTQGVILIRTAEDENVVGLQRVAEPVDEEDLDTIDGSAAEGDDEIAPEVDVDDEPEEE
# T1 sequence (P0AFI2 whole entry): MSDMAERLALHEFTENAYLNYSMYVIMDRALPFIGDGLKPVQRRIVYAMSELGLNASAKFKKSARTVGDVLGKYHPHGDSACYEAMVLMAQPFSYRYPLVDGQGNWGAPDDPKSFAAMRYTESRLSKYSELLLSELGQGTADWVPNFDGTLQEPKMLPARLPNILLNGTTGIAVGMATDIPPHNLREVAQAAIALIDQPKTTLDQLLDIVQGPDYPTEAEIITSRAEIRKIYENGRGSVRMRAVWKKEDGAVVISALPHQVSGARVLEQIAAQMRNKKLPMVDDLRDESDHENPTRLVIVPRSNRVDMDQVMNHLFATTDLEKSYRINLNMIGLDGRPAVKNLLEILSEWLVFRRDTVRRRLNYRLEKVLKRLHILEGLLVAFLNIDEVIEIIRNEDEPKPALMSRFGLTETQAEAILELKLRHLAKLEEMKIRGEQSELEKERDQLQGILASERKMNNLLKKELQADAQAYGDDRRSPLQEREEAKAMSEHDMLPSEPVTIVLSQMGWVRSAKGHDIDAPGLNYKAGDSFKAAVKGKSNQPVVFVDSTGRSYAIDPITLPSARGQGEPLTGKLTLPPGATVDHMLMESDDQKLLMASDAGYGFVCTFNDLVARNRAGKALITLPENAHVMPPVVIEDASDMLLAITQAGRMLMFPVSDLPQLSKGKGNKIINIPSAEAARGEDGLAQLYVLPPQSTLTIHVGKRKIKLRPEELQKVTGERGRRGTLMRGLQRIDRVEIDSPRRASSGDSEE
# T1 sequence (P20083 whole entry): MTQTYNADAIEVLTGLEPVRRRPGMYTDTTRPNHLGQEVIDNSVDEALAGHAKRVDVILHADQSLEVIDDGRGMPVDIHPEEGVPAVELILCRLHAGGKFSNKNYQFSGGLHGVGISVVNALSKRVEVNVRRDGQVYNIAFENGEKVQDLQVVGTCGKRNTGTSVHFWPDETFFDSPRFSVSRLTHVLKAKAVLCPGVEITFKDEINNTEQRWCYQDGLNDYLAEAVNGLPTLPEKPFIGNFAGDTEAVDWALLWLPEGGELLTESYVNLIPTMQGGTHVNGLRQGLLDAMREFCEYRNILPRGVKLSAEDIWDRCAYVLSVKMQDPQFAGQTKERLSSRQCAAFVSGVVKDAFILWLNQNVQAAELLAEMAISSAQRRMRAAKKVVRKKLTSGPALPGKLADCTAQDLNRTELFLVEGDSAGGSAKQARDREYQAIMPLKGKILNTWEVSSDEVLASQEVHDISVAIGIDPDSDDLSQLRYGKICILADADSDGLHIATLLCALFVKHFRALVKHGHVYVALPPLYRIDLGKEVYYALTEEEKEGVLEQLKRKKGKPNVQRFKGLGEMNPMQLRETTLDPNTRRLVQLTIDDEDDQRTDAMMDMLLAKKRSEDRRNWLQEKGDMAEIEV
SMILES,MIC E. coli AG100A [1] [µg/mL],MIC E. coli R477-100 [2] [µg/mL],MIC ratio XL1 blue/pSF815 to XL1 blue [3],MIC XL1 blue/pSF815 [3] [μg/ml],MIC BL21 [4] [µg/mL],MIC XL1 blue [5] [µg/mL],MIC ratio BL21/pETSACG1 to BL21 [6],MIC BL21/pETSACG1 [6] [μg/ml],MIC ratio XL1 blue/pET9d to XL1 blue [7],MIC XL1 blue/pET9d [7] [μg/ml],MIC B. subtilis ATCC 6633 [8] [µg/mL],MIC E. coli ATCC 25922 [9] [µg/mL],MIC E. coli AG100B [10] [µg/mL],MIC MRSA ATCC 43300 [11] [µg/mL],IC50 fold superior than Cipro in TopoIV assay [12] [fold],IC50 [12] [µM],IC50 [13] [µM],IC50 fold superior than that of Cipro in DNA gyrase assay [14] [fold],IC50 [14] [µM],further results
"NCC1OC(OC2C(C(=O)NCc3cn(Cc4ccc(CN5CCN(c6cc7c(cc6F)c(=O)c(C(=O)O)cn7C6CC6)CC5)cc4)nn3)OC(OC3C(O)C(N)CC(N)C3OC3OC(CN)C(O)C(O)C3N)C2O)C(N)C(O)C1O (stereo not shown) [Compound 1p, N-((1-(4-((ciprofloxacin)methyl)benzyl)-1H-1,2,3-triazol-4-yl)-5″-methyl)neomycin carboxamide]",1.5,6,1,6,0.4,6,1,0.4,1,6,3,6,12,3,–,–,–,–,–,–
"NCC1OC(OC2C(C(=O)Nc3ccc(-c4cn(CC(O)CN5CCN(c6cc7c(cc6F)c(=O)c(C(=O)O)cn7C6CC6)CC5)nn4)cc3)OC(OC3C(O)C(N)CC(N)C3OC3OC(CN)C(O)C(O)C3N)C2O)C(N)C(O)C1O (stereo not shown) [Compound 1f, N-(4-(1-(2-hydroxy-3-(ciprofloxacin)propyl)-1H-1,2,3-triazol-4-yl)-5″-phenyl)neomycin carboxamide]",0.75,6,–,–,–,–,–,–,–,–,6,3,6,24,19,0.58 ± 0.04,2.2 ± 0.6,18,0.073 ± 0.005,–
"NCC1OC(OC2C(COCc3cn(CCN4CCN(c5cc6c(cc5F)c(=O)c(C(=O)O)cn6C5CC5)CC4)nn3)OC(OC3C(O)C(N)CC(N)C3OC3OC(CN)C(O)C(O)C3N)C2O)C(N)C(O)C1O (stereo not shown) [Compound 1q, 4-((5″-neomycinmethoxy)methyl)-1-(2-(ciprofloxacin)ethyl)-1H-1,2,3-triazole]",0.38,3,4,12,0.2,3,1,0.2,4,12,0.75,3,12,6,1.4,7.9 ± 0.25,18.1 ± 4.9,32,0.041 ± 0.009,fold more potent than NeoB against E. coli AG100A ([1]; from MIC): 253 fold; fold more potent than NeoB against E. coli AG100B ([10]; from MIC): 32 fold
